Where “and” joins values, the source holds several entries; their conditions need not be identical. Equal entries are not always repeated.
Columns and labels:
[1] = Liver microsomes stability and metabolite identification (LC-MS), dog; type: in vitro ADME
[2] = Plasma composition analysis, parent compound and metabolites by MS; type: in vivo; conditions: rat plasma
Experimental: Rats receive compounds (5 mg/kg) dissolved in HPβCD 15%, dextrose 2.5%, pH 5 by intravenous (i.v). route or (25-30 mg/kg) dissolved in HPβCD 15%, dextrose 2.5%, […] (s.c.) route or (50-150 mg/kg) dissolved in HPβCD 15%, dextrose 2.5%, pH 5 by oral (p.o.) route. After the treatment, approximately 100 μl of blood sample is collected and the accurate bleeding time is recorded for each sample. Each blood sample is collected into Microvette blood collection tube containing anticoagulant lithium heparin. Following collection, the samples are centrifuged at […] for 15 minutes (to avoid haemolysis) and the plasma obtained from each is recovered and stored frozen (at −80° C.) pending analysis. Frozen samples are shipped on dry ice to quantify drug concentration within plasma after extraction procedure as previously described in Example 13.

[3] = Liver microsomes stability and metabolite identification (LC-MS), human; type: in vitro ADME
From the text: The objective of this study is to analyze in vitro samples of Compound A and Compound B from rat and human microsomes using liquid chromatography quadrupole ion trap mass spectrometry and identify the nature of the metabolite(s) for each species.
The HPLC system consisted of a Thermo Surveror autosampler and a Thermo Surveyor MS pump (San Jose, Calif., USA). The LC-MS/MS system used was a Thermo LCQ Advantage (San Jose, Calif., USA). Data was acquired on a Dell Optiplex desktop computer (Round Rock, Tex., USA) equipped with operation system Windows XP professional. Data acquisition and analysis were performed using XCalibur 1.4 (San Jose, Calif., USA).
After the incubation period of the liver microsomes, the reaction was stopped with the addition of acetonitrile and frozen for transport. Before analysis, the samples were thawed at room temperature. They were vortexed vigorously and centrifuged at approximately 12000 g for 10 minutes. The supernatant was transferred into an injection vial for analysis.
A gradient mobile phase was used with a Thermo Phenyl 100×2 mm column with particle size of 5 μm. The initial mobile phase condition consisted of methanol and 0.1% formic acid solution at a ratio of 20:80, respectively. From 0 to 2 minutes, the ratio was maintained at 20:80. From 2 to 10 minutes, a linear gradient was applied and a ratio of 90:10 was maintained from 10 to 12 minutes. […] The flow rate was fixed at 0.25 mL/min.
The mass spectrometer was interfaced with the HPLC system using a pneumatic assisted electrospray ion source. The sheath gas was set to 15 units and the ESI electrode was set to 4000 V (positive mode). The capillary temperature was set at 300° C., and the capillary voltage was set to 13 V. The mass spectrometer was operating in full scan MS mode using one segment analysis (200-800).

[4] = dog microsomes 60 min (samples 23-25)
[5] = human microsomes 60 min (samples 14-16)

In the case of `COc1ccc(F)cc1-c1cc2c(c3c1CCN(C)C3)NC(=O)C2=NO` [Compound A, 5-(5-fluoro-2-methoxyphenyl)-6,7,8,9-tetrahydro-3-(hydroxyimino)-8-methyl-1H-pyrrolo[3,2-h]isoquinoline-2(3H)-one], the Total % metabolites ([1]; % peak area relative to parent at T0, 60 min incubation, dog microsomes) is reported as 2.74%, the “Compound A metabolite identification: m/z 342” value [1, 4] is reported as “weak” and the “Compound A metabolite identification: m/z 356 (parent)” value [1, 4] is reported as “Yes”. For the same compound, the “Compound A metabolite identification: m/z 372” value [1, 4] was “Yes”, the “Compound A metabolite identification: m/z 412” value [1, 4] was “no” and the “Calc. Conc.” value ([1]; dog microsomes, time 0 min) was 4.71 µM and 5.14 µM. For the same compound, the “Calc. Conc.” value ([1]; dog microsomes, time 60 min) was 3.95 µM and 4.05 µM and 4.10 µM, the “Plasma Component: N-desMe or desEt” value ([2]; IV 5 mg/kg) was “Small” and the “Plasma Component: O-desMe” value ([2]; IV 5 mg/kg) was “Trace”. For the same compound, the “Plasma Component: N-desMe or desEt” value ([2]; PO 50 mg/kg) was “Small”, the “Plasma Component: O-desMe” value ([2]; PO 50 mg/kg) was “Trace” and the Total % metabolites ([3]; % peak area relative to parent at T0, 60 min incubation, human microsomes) was 8.08%. For the same compound, the “Compound A metabolite identification: m/z 342” value [3, 5] was “Yes”, the “Compound A metabolite identification: m/z 356 (parent)” value [3, 5] was “Yes” and the “Compound A metabolite identification: m/z 372” value [3, 5] was “Yes”. For the same compound, the “Compound A metabolite identification: m/z 412” value [3, 5] was “no”, the “Calc. Conc.” value ([3]; human microsomes, time 0 min) was 4.91 µM and 6.54 µM and the “Calc. Conc.” value ([3]; human microsomes, time 60 min) was 3.84 µM and 3.83 µM and 3.77 µM.

From patent publication US20090246134A1, “COMPOSITIONS AND METHODS FOR MODULATING GATED ION CHANNELS” (PainCeptor Pharma Corporation, priority 2007, published 2009)
